# Source: patent US12060570B2, “Vector-free intracellular delivery by reversible permeabilisation” (Avectas Limited, priority 2016, dated 2024)
# Experiments:
# Format in all cases: cell-based
# A549 cells [1] = experiment: Endocytosis inhibitor pretreatment, EGFP mRNA expression; settings: n=3; for Expression of EGFP mRNA delivered by soluporation in the presence of inhibitor: pretreatment: Dynasore 4 mM, chloropromazine 20 μM, Nystatin 20 μg/ml, EIPA 100 μM
# Method: To test the contribution of alternate uptake mechanisms such as active pathways and internalization in endocytotic vesicles, A549 cells were pretreated with Dynasore (4 mM) or chloropromazine (20 μM) to inhibit clathrin-mediated endocytosis or Nystatin (20 μg/ml) or EIPA (100 μM) to inhibit caveolar-mediated endocytosis and micropinocytosis respectively.
# Jurkat cells = experiment: Delivery of fluorescently-labelled proteins to Jurkat monolayer on transwell insert, flow cytometry; settings: soluporation
# Method: In order to form a monolayer of suspension cells that would allow the cells to be presented optimally to the spray, a transwell insert system was used. Cells were seeded at 1×10^6 in 400 μl per insert and the media was removed by placing the transwell insert (Greiner bio-one; CAT #655640; 12 Well ThinCert; PET 0.4 μm) into a device that allowed a vacuum to be applied to the bottom of the insert (between −0.5 bar and −0.65 bar; see FIGS. 14A, B, C). Once the media was removed the remaining cells formed a monolayer to which the spray can be applied. Non-adherent cells such as PBMCs, primary T-cells, or a cell line, e.g., Jurkat T cells, were added to the insert system, the vacuum applied and the insert placed into a 12 well plate and sprayed with delivery solution (10 lid) containing test payload such as either fluorescently-labelled beta-lactoglobulin (BLG), bovine serum albumin (BSA) or ovalburnin (OVA). Stop solution (50 μl) was applied after a 2 minute incubation and 30 s later normal media (100 μl) was applied.
# A549 cells [2] = experiment: Resealing of plasma membrane after permeabilization, PI uptake by flow cytometry; settings: delivery solution without cargo, PI 100 μg/ml, n=3
# Method: It was noted that the delivery method was very gentle on cells with little if any cell death or damage evident. […] To examine the rate of recovery of the cell membrane after permeabilization, delivery solution was applied to A549 cells in the absence of cargo. At subsequent time points (0 to 182.5 min), this delivery solution was removed and 50 μl PBS containing propidium iodide (PI) (100 μg/ml) is added. After 2 min incubation, the PI solution was removed and the cells were harvested. PI uptake was analysed by flow cytometry. For basal levels of PI uptake, untreated cells received 50 μl PI in PBS. […] After 6 minutes there is no further uptake. Thus not only do the cells load within 2 minutes of exposure to the delivery solution, but the membrane has effectively recovered its integrity within 6 minutes of beginning the procedure.
Compound,Expression of EGFP mRNA delivered by soluporation in the presence of inhibitor (A549 cells [1]),also measured
CCN(c1nc(N)c(C(=O)NC(=N)N)nc1Cl)C(C)C [EIPA],remained unchanged,
bovine serum albumin [BSA],,Expression levels (fluorescently-labelled protein) (Jurkat cells): 28.5%
C[C@@H]1[C@H](O)[C@@H](C)/C=C/C=C/CC/C=C/C=C/C=C/C=C/C(O[C@H]2O[C@H](C)[C@@H](O)[C@H](N)[C@@H]2O)CC2O[C@](O)(CC(O)C(O)CCC(O)CC(O)CC(O)CC(=O)O[C@H]1C)CC(O)C2C(=O)O (some centres unmarked) [Nystatin],remained unchanged,
CC[N+](C)(CC)CCC[n+]1c(-c2ccccc2)c2cc(N)ccc2c2ccc(N)cc21.[I-].[I-] [propidium iodide],,time post treatment over which cells remain permeable to PI before resealing (A549 cells [2]): ≤ 6 min
CN(C)CCCN1c2ccccc2Sc2ccc(Cl)cc21 [chloropromazine],remained unchanged,
ovalbumin,,Expression levels (fluorescently-labelled protein) (Jurkat cells): 15.3%
O=C(N/N=C/c1ccc(O)c(O)c1)c1cc2ccccc2cc1O [Dynasore],remained unchanged,GFP expression in lipofected cells (Lipofectamine 2000) (A549 cells [1]; Dynasore treated): significantly reduced
